Measured values as given in US9181273B2, “Morpholine-spirocyclic piperidine amides as modulators of ion channels” (Vertex Pharmaceuticals Incorporated, priority 2011, dated 2015).

What follows are molecules tested against human NaV subtype, like NaV 1.7 (Homo sapiens, UniProt Q15858) (assay: E-VIPR optical membrane potential assay with electrical stimulation). Settings: not given.
Type: cell-based

Sequence of human NaV subtype, like NaV 1.7 (Q15858 whole entry): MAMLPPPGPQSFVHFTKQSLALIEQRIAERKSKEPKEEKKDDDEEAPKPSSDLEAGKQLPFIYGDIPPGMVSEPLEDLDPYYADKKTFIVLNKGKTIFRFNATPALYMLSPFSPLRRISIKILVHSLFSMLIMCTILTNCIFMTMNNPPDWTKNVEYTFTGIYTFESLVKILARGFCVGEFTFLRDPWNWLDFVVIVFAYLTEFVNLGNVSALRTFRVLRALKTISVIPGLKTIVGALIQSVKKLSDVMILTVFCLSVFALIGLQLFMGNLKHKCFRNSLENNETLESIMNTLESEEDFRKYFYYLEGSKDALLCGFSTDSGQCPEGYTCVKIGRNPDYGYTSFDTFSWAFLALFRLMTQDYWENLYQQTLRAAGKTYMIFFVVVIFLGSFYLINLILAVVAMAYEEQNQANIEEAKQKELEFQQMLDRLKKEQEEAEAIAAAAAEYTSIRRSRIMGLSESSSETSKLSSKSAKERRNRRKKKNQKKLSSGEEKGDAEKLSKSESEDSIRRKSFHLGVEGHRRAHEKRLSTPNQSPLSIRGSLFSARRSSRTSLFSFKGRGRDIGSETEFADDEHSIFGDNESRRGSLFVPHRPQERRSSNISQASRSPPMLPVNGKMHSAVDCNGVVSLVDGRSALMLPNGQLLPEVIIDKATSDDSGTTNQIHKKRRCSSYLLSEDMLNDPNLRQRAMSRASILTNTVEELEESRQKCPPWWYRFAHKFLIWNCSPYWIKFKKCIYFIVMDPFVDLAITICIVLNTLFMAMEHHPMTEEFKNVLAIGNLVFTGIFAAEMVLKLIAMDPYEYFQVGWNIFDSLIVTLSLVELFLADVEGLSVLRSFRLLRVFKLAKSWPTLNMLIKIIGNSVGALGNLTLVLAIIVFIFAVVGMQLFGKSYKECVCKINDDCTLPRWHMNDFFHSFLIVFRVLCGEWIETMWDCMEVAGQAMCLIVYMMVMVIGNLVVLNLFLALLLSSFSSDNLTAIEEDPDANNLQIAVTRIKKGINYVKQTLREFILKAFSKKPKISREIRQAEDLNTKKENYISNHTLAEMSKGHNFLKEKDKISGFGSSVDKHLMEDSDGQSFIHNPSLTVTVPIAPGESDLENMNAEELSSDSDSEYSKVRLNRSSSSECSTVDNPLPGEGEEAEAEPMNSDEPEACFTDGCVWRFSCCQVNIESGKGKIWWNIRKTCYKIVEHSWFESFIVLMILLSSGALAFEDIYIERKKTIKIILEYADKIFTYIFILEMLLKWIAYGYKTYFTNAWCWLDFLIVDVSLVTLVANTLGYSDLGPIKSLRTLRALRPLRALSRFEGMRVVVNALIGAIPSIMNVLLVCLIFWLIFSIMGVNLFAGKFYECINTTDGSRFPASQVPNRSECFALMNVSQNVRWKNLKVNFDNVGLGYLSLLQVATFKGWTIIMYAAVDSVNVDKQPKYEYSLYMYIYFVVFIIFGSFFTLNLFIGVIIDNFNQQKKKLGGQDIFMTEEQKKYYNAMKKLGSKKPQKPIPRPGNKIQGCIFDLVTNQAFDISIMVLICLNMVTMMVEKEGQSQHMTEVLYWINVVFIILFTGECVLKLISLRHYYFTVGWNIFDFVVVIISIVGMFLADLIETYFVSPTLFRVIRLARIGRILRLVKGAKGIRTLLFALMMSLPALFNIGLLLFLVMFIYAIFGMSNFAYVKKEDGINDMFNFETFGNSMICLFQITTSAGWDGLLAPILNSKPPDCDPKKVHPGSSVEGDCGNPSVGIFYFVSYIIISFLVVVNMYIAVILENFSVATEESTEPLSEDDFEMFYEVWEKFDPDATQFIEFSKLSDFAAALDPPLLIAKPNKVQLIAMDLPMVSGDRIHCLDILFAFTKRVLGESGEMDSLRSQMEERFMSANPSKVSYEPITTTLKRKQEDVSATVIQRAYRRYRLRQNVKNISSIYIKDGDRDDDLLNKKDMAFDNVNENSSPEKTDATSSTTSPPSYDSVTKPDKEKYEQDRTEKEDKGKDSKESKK

Row | Compound | IC50 [nM]
1 | COCC1CN(c2ncccn2)CC2(CCN(C(=O)c3ccc(C(C)(C)C)c(OC)c3)CC2)O1 (stereo not drawn) [Compound 191] | < 2000

Same assay, conditions: active against one or more sodium channels; assay and NaV subtype not specified for Table 3; read-out: IC50 Binned Activity Data

Row | Compound | IC50 [nM]
2 | COCC1CN(c2ncccn2)CC2(CCN(C(=O)c3ccc(OC(C)C)c(OC)c3)CC2)O1 (stereo not drawn) [Compound 173] | 2000 to 5000
3 | COCCCN1CC(COC)OC2(CCN(C(=O)c3ccc(OC(C)C)c(C)c3)CC2)C1 (stereo not drawn) [Compound 175] | < 2000
4 | CCC1CN(c2ccccn2)CC2(CCN(C(=O)c3ccc(C4(O)CCC4)c(C)c3)CC2)O1 (stereo not drawn) [Compound 176] | < 2000
5 | CC(C)Oc1ccc(C(=O)N2CCC3(CC2)CN(CC(F)(F)F)CC(c2ccccc2)O3)nc1 (stereo not drawn) [Compound 177] | < 2000
6 | COCC1CN(CC(F)F)CC2(CCN(C(=O)c3ccc(OC(C)C)c(C)c3)CC2)O1 (stereo not drawn) [Compound 178] | < 2000
7 | Cc1cc(C(=O)N2CCC3(CC2)CN(Cc2ccccc2)CC(C(C)(C)O)O3)ccc1OC(C)C (stereo not drawn) [Compound 179] | > 5000
8 | COCC1CN(c2nccs2)CC2(CCN(C(=O)c3ccc(OC(C)C)c(C)c3)CC2)O1 (stereo not drawn) [Compound 180] | < 2000
9 | Cc1cc(C(=O)N2CCC3(CC2)CN(CC(F)(F)F)CC(Cn2cccn2)O3)ccc1OC(C)C (stereo not drawn) [Compound 181] | > 5000
10 | COCC1CN(c2ccc(OC)cc2)CC2(CCN(C(=O)c3ccc(OC(C)C)c(C)c3)CC2)O1 (stereo not drawn) [Compound 183] | < 2000
11 | COCC1CN(CCSC)CC2(CCN(C(=O)c3ccc(OC(C)C)c(C)c3)CC2)O1 (stereo not drawn) [Compound 184] | < 2000
12 | CC#CCN1CC2(CCN(C(=O)c3ccc(OC(C)C)c(C)c3)CC2)OCC1(C)C [Compound 185] | > 5000
13 | COc1ccc(C(=O)N2CCC3(CC2)CN(CCC(C)C)C(=O)C(c2ccccc2)O3)cc1C(F)(F)F (stereo not drawn) [Compound 186] | < 2000
14 | COCC1CN(c2ncc(F)cn2)CC2(CCN(C(=O)c3ccc(OC(C)C)c(C)c3)CC2)O1 (stereo not drawn) [Compound 187] | < 2000
15 | COCCN1CC(COC)OC2(CCN(C(=O)c3ccc(OC(C)C)c(C)c3)CC2)C1 (stereo not drawn) [Compound 188] | 2000 to 5000
16 | Cc1cc(C(=O)N2CCC3(CC2)CN(CC(F)(F)F)CC(c2ccccc2)O3)ccc1S(C)(=O)=O (stereo not drawn) [Compound 189] | < 2000
17 | CC(C)Oc1ccc(C(=O)N2CCC3(CC2)CN(CC(F)F)CC(c2ccccc2Cl)O3)cc1F (stereo not drawn) [Compound 190] | < 2000
18 | CCN1CC(c2ccccc2)OC2(CCN(C(=O)c3ccc(OC(C)C)c(OC)c3)CC2)C1 (stereo not drawn) [Compound 192] | < 2000
19 | COCC1CN(CC(=O)C(C)(C)C)CC2(CCN(C(=O)c3ccc(OC(C)C)c(C)c3)CC2)O1 (stereo not drawn) [Compound 193] | < 2000
20 | CC(C)Oc1ccc(C(=O)N2CCC3(CC2)CN(CC(F)(F)F)CC(c2ccccc2)O3)cc1CO (stereo not drawn) [Compound 194] | < 2000
21 | Cc1cccc(C2CN(CC(F)F)CC3(CCN(C(=O)c4ccc(OC(C)C)c(F)c4)CC3)O2)n1 (stereo not drawn) [Compound 195] | < 2000
22 | Cc1cnc(C2CN(CC(F)(F)F)CC3(CCN(C(=O)c4ccc(OC(C)C)c(C)c4)CC3)O2)s1 (stereo not drawn) [Compound 196] | < 2000
23 | COCC1CN(c2ncccn2)CC2(CCN(C(=O)c3ccc(C(O)C(C)C)cc3)CC2)O1 (stereo not drawn) [Compound 197] | 2000 to 5000
24 | COCC1CN(c2ncccn2)CC2(CCN(C(=O)c3ccc(S(=O)(=O)NC4CC4)cc3)CC2)O1 (stereo not drawn) [Compound 198] | > 5000
25 | Cc1cc(C(=O)N2CCC3(CC2)CN(CC(F)(F)F)CC(c2ccccc2)O3)ccc1OCCO (stereo not drawn) [Compound 199] | 2000 to 5000
26 | Cc1cc(C(=O)N2CCC3(CC2)CN(CC(F)(F)F)CC(c2ccccc2)O3)ccc1S(=O)(=O)C(C)C (stereo not drawn) [Compound 200] | < 2000
27 | COCC1CN(C2CCCCCC2)CC2(CCN(C(=O)c3ccc(OC(C)C)c(C)c3)CC2)O1 (stereo not drawn) [Compound 201] | < 2000
28 | Cc1cc(C(=O)N2CCC3(CC2)CN(CC(F)F)CC(c2ccc(F)cc2)O3)ccc1S(C)(=O)=O (stereo not drawn) [Compound 202] | > 5000
29 | CCOc1cc(C(=O)N2CCC3(CC2)CN(CC)CC(c2ccccc2)O3)ccc1CO (stereo not drawn) [Compound 203] | 2000 to 5000
30 | COCC1CN(C2CCCCC2)CC2(CCN(C(=O)c3ccc(OC(C)C)c(C)c3)CC2)O1 (stereo not drawn) [Compound 204] | < 2000
